pIC50, pKi: −log10 of the molar value. Where a name gives a salt, the structure may show the parent alone.
Assays:
Format in all cases: biochemical
MASP-2 (CCP1-CCP2-SP) = biological target: T1, MASP-2 (CCP1-CCP2-SP) (Homo sapiens, UniProt O00187); assay: Enzymatic assay for MASP-2 inhibitory activity (fluorogenic substrate)
T1 construct: 15 μL of Enzyme MASP-2 (CCP1-CCP2-SP) in Assay Buffer
In short: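 Fluorescence was normalized between no-enzyme and DMSO-only controls to derive % activity, with IC50 taken as equivalent to Ki except for tight-binding inhibitors. Reactions ran 20 min at room temperature in HEPES pH 7.4/NaCl/Tween 20 buffer, using the C2-derived fluorogenic substrate, before acetic acid stop.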

human α-thrombin = biological target: T2, human α-thrombin (Homo sapiens, UniProt P00734); assay: Enzymatic assay for thrombin (fluorogenic peptide substrate Boc-VPR-AMC)
T2 construct: enzyme (human α-thrombin (BioPharm® Lab.)) in assay buffer; purchased BioPharm® Lab
In short: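 Assay conditions kept the reaction linear in time, enzyme and substrate, so IC50 approximated Ki apart from tight- or slow-binding cases. Boc-VPR-AMC cleavage by human α-thrombin proceeded 20 min at room temperature in Hepes pH 7.4/NaCl/Tween 20 buffer, then was acid-quenched and read by fluorescence.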

[1] = tested on: Lectin Pathway Activation in human serum; assay: Lectin Pathway Activation (LPA) assay in human serum, mannan-coated ELISA plate, C4c detection; details: 1% human serum, read-out: LPA Functional Activity (IC50)
Experimental: Lectin Pathway Activation (LPA) Assay in Human Serum Treated with Compounds
A microtiter ELISA plate was coated with mannan (1 mg/ml) from Saccharomyces cerevisiae (Sigma-Aldrich®, M7504) overnight at 4° C. in coating buffer [33.3 mM Na2CO3, 166.67 mM NaHCO3]. The plate was blocked with 5% bovine serum albumin (BSA) (Sigma-Aldrich®, A3294) in 1×PBST [Phosphate Buffered Saline Solution (1.06 mM KH2PO4, 155.2 mM NaCl, 2.97 mM Na2HPO4^−·7H2O, pH 7.4), 0.05% Tween-20] shaking for 2 hours at room temperature. 1% human serum was incubated with serial dilutions of small compounds in 1× LPA+ Buffer [20 mM Hepes, pH 7.4, 140 mM NaCl, 2 mM MgCl2 (6H2O)] and incubated for 5 minutes at room temperature. 40 μL of this mixture was then added to the plate, and the plate was incubated at room temperature for 55 mins. Next, the reaction was stopped by adding 20 μL of EDTA Stop Solution [20 mM Hepes, pH7.4, 140 mM NaCl, 150 mM EDTA] to the plate. The plate was then washed 10× in wash buffer 1×PBST; 40 μL of Rabbit Anti Human C4c Antibody [Dako®, Q0369] diluted 1:20000 in wash buffer was added; and the plate was incubated shaking at room temperature for 30 minutes. The plate was washed [5× times]; 40 μL of Goat Anti-rabbit Antibody-HRP Conjugate [Southern Biotech®, 4050-05] diluted 1:10000 in wash buffer was added; and the plate was incubated shaking at room temperature for 30 minutes. After that, the plate was washed five times; 40 µL/well of Amplex® UltraRed Substrate Solution [1× LPA Buffer, 10 mM Amplex® UltraRed Stock Solution [Thermo Fisher Sci.®, A36006], 3% stabilized hydrogen peroxide [Sigma Aldrich®, 216763] was added; the plate was incubated at room temperature for 16 minutes; the reaction was stopped by adding 8 µL/well of Amplex® UltraRed Stop Solution [Thermo Fisher Sci.®, A33855] in 100% EtOH. Finally, the plate was read for fluorescence at Ex: 550 nm, Em: 580 nm on the i3x Microplate Reader.

T1 sequence (O00187 445-686 limits assumed): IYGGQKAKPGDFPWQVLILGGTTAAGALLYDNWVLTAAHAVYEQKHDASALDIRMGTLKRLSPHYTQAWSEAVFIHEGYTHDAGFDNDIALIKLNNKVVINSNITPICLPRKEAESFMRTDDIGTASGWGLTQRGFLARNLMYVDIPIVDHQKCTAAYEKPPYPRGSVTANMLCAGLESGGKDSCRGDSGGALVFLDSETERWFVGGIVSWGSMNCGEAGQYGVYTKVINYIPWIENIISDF
T1 sequence (O00187 287-444 partner limits assumed): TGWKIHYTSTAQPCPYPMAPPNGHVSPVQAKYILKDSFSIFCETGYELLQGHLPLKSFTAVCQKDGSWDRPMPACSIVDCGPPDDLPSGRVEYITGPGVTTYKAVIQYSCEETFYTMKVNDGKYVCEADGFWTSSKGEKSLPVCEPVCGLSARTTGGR

| SMILES | pKi (MASP-2 (CCP1-CCP2-SP)) | pKi (human α-thrombin) | pIC50 [1] |
| --- | --- | --- | --- |
| Cc1cc(F)cc(CNc2ncc3n(c2=O)[C@H](C(=O)NCc2ccc(CN)cc2)CC3)c1 [Compound 181, (S)—N-(4-(aminomethyl)benzyl)-3-((3-fluoro-5-methylbenzyl)amino)-4-oxo-4,6,7,8-tetrahydropyrrolo[1,2-a]pyrazine-6-carboxamide trifluoroacetate] | > 6.30 | 5.00 to 5.60 | 6.30 to 7.30 |
| [2H]C([2H])([2H])c1nc(N)ccc1CNC(=O)[C@@H]1CCc2cnc(NCc3cc(C)cc(OC)c3)c(=O)n21 [Compound 226, (S)—N-((6-amino-2-(methyl-d3)pyridin-3-yl)methyl)-3-((3-methoxy-5-methylbenzyl)amino)-4-oxo-4,6,7,8-tetrahydropyrrolo[1,2-a]pyrazine-6-carboxamide] | > 6.30 | > 6.30 | > 7.30 |
| Cc1nc(N)ccc1CNC(=O)[C@@H]1C[C@H](Cc2ccccc2)c2cnc(NC3CCC3)c(=O)n21 [Compound 140, (6S,8S)-N-((6-amino-2-methylpyridin-3-yl)methyl)-8-benzyl-3-(cyclobutylamino)-4-oxo-4,6,7,8-tetrahydropyrrolo[1,2-a]pyrazine-6-carboxamide] | > 6.30 | > 6.30 | > 7.30 |
| Cc1nc(N)ccc1CNC(=O)[C@@H]1CCc2c(Cl)nc(NCc3ccccc3)c(=O)n21 [Compound 131, (S)-N-((6-amino-2-methylpyridin-3-yl)methyl)-3-(benzylamino)-1-chloro-4-oxo-4,6,7,8-tetrahydropyrrolo[1,2-a]pyrazine-6-carboxamide] | > 6.30 | 5.60 to 6.30 | > 7.30 |
| C[C@@H](CNc1ncc2n(c1=O)[C@H](C(=O)NCc1cc3c(s1)CNC3)CC2)c1ccccc1 [Compound 276, (S)-N-((5,6-dihydro-4H-thieno[2,3-c]pyrrol-2-yl)methyl)-4-oxo-3-(((R)-2-phenylpropyl)amino)-4,6,7,8-tetrahydropyrrolo[1,2-a]pyrazine-6-carboxamide trifluoroacetate] | > 6.30 | > 6.30 | > 7.30 |
| C[C@@H]1C[C@@H](C(=O)NCc2cc3cnccc3[nH]2)n2c1c(Cl)nc(NCc1ccccc1)c2=O [Compound 230, (6S,8R)-N-((1H-pyrrolo[3,2-c]pyridin-2-yl)methyl)-3-(benzylamino)-1-chloro-8-methyl-4-oxo-4,6,7,8-tetrahydropyrrolo[1,2-a]pyrazine-6-carboxamide trifluoroacetate] | > 6.30 | 5.60 to 6.30 | 6.30 to 7.30 |
| COc1cc(C)cc(CNc2ncc3n(c2=O)[C@H](C(=O)N[C@H](C)c2ccc(N)nc2)CC3)c1 [Compound 194, (S)-N-((R)-1-(6-aminopyridin-3-yl)ethyl)-3-((3-methoxy-5-methylbenzyl)amino)-4-oxo-4,6,7,8-tetrahydropyrrolo[1,2-a]pyrazine-6-carboxamide trifluoroacetate] | > 6.30 | 5.00 to 5.60 | > 7.30 |
| COc1cc(C)cc(CNc2ncc3n(c2=O)[C@H](C(=O)NCc2cc4cnccc4[nH]2)CC3)c1 [Compound 48, (S)-N-((1H-pyrrolo[3,2-c]pyridin-2-yl)methyl)-3-((3-methoxy-5-methylbenzyl)amino)-4-oxo-4,6,7,8-tetrahydropyrrolo[1,2-a]pyrazine-6-carboxamide] | > 6.30 | > 6.30 | > 7.30 |
| Cc1ccc(F)c(CNc2ncc3n(c2=O)[C@H](C(=O)NCc2cc4cnccc4[nH]2)CC3)c1 [Compound 78, (S)-N-((1H-pyrrolo[3,2-c]pyridin-2-yl)methyl)-3-((2-fluoro-5-methylbenzyl)amino)-4-oxo-4,6,7,8-tetrahydropyrrolo[1,2-a]pyrazine-6-carboxamide] | > 6.30 | > 6.30 | > 7.30 |
| O=C(NCc1cc2cnccc2[nH]1)[C@@H]1CCc2c(Cl)nc(NCc3cnccn3)c(=O)n21 [Compound 239] | > 6.30 | < 4.60 | 6.30 to 7.30 |
| Cc1ccc(CNc2nc(Cl)c3n(c2=O)[C@H](C(=O)NCc2ccc(N)nc2C)CC3)cc1C [Compound 27, (S)-N-((6-amino-2-methylpyridin-3-yl)methyl)-1-chloro-3-((3,4-dimethylbenzyl)amino)-4-oxo-4,6,7,8-tetrahydropyrrolo[1,2-a]pyrazine-6-carboxamide trifluoroacetate] | > 6.30 | 5.00 to 5.60 | > 7.30 |

Results, then the molecule that gave them:

| pKi (MASP-2 (CCP1-CCP2-SP)) | pKi (human α-thrombin) | pIC50 [1] | SMILES |
| --- | --- | --- | --- |
| > 6.30 | > 6.30 | > 7.30 | O=C(NCc1cc2c(s1)CNC2)[C@@H]1CCc2cnc(N[C@@H](c3ccccc3)C3CC3)c(=O)n21 [Compound 259, (S)-3-(((R)-cyclopropyl(phenyl)methyl)amino)-N-((5,6-dihydro-4H-thieno[2,3-c]pyrrol-2-yl)methyl)-4-oxo-4,6,7,8-tetrahydropyrrolo[1,2-a]pyrazine-6-carboxamide trifluoroacetate] |
| > 6.30 | > 6.30 | 6.30 to 7.30 | Cc1cc(C)cc(CNc2ncc3n(c2=O)[C@H](C(=O)NCc2ccnc(N)c2)CC3)c1 [Compound 88, (S)-N-((2-aminopyridin-4-yl)methyl)-3-((3,5-dimethylbenzyl)amino)-4-oxo-4,6,7,8-tetrahydropyrrolo[1,2-a]pyrazine-6-carboxamide] |
| > 6.30 | < 4.60 | > 7.30 | O=C(NCc1cc2cnccc2[nH]1)[C@@H]1CCc2c(C3=CCOCC3)nc(NCc3ccccc3)c(=O)n21 [Compound 120, (S)—N-((1H-pyrrolo[3,2-c]pyridin-2-yl)methyl)-3-(benzylamino)-1-(3,6-dihydro-2H-pyran-4-yl)-4-oxo-4,6,7,8-tetrahydropyrrolo[1,2-a]pyrazine-6-carboxamide] |
| > 6.30 | 5.60 to 6.30 | > 7.30 | Cc1cc(C)cc(CNc2ncc3n(c2=O)[C@H](C(=O)NCc2cc4cnccc4n2C)CC3)c1 [Compound 41, (S)-3-((3,5-dimethylbenzyl)amino)-N-((1-methyl-1H-pyrrolo[3,2-c]pyridin-2-yl)methyl)-4-oxo-4,6,7,8-tetrahydropyrrolo[1,2-a]pyrazine-6-carboxamide trifluoroacetate] |
| > 6.30 | > 6.30 | > 7.30 | CC[C@H]1C[C@@H](C(=O)NCc2cc3cnccc3[nH]2)n2c1cnc(NCc1cc(C)cc(C)c1)c2=O [Compound 155, (6S,8S)-N-((1H-pyrrolo[3,2-c]pyridin-2-yl)methyl)-3-((3,5-dimethylbenzyl)amino)-8-ethyl-4-oxo-4,6,7,8-tetrahydropyrrolo[1,2-a]pyrazine-6-carboxamide] |
| > 6.30 | 4.60 to 5.00 | > 7.30 | Cc1cc(F)cc(CNc2ncc3n(c2=O)[C@H](C(=O)NCc2cc4cnc(C)cc4[nH]2)CC3)c1 [Compound 71, (S)-3-((3-fluoro-5-methylbenzyl)amino)-N-((6-methyl-1H-pyrrolo[3,2-c]pyridin-2-yl)methyl)-4-oxo-4,6,7,8-tetrahydropyrrolo[1,2-a]pyrazine-6-carboxamide] |
| > 6.30 | 5.60 to 6.30 | 6.30 to 7.30 | CC[C@@H](Nc1ncc2n(c1=O)[C@H](C(=O)N[C@H](C)c1cc3c(s1)CNC3)CC2)c1ccccc1 [Compound 277] |

From US20250122225A1, “MASP-2 INHIBITORS AND METHODS OF USE” (Omeros Corporation, priority 2023, published 2025)
